Experiments:
[1] = tested on: endogenous HEK3 locus in HEK293T cells; experiment: Inducible prime editing, His6 Tag insertion (Sanger sequencing, TIDE); type: cell-based, human; details: high TRE3G-driven PE2 plasmid dose (120 ng per well), 100 nM dTAG-13, 3 days, FIG. 3H
Protocol: Prime editing measurement. HEK293T cells were seeded into 96 well plates (Corning no. 3598). When the cells reach 20% confluency, 265 ng to 290 ng plasmids (See Table 1 for plasmid dosage used in each condition) were firstly mixed with 25 μL DMEM. 0.5 μL Lipofectamine 2000 (Life Technology no. 11661089) was incubated with 25 μL DMEM for 5 min. Next, plasmid solution was mixed with the Lipofectamine 2000 solution for 20 min and added into the cells gently. After 12 h, the supernatants were changed with fresh 10% FBS (Thermo Fisher Scientific no. 10437028) DMEM medium (Thermo Fisher Scientific no. 10569044) supplied with Puromycin (10 μg/mL Thermo Fisher Scientific no. A1113803) and 100 nM dTAG-13 (TOCRIS no. 6605/5) or DMSO (Sigma, no. D8418). 3 days post-induction, the supernatant was removed and supplied with 100 μL lysis buffer (10 mM tris-HCl (pH=7.5), 0.05% SDS, and proteinase K (25 μg/mL, Thermo Fisher Scientific no. 01169965)) followed by 37° C. 1 h, 58° C. 30 min and inactivated at 95° C. for 20 min. […] The insertion efficiency was analyzed online in TIDE (https://tide.nki.nl/) (Brinkman et al., 2018) with the setting (left boundary=100, Decomposition window (115-685 bp), Indel size range (28 bp), P-value threshold=0.001).

[2] = tested on: mutated Cre gene with 2-bp micro-deletion / GFP expression in HEK293T cells; experiment: Inducible prime editing repair of micro-deleted Cre, GFP reporter; type: cell-based, human; details: 100 nM dTAG-13, FIGS. 3F and 18
Protocol: Fluorescence assay using flow cytometry analysis. Cells were treated with 0.05% Trpsin EDTA (Thermo Fisher Scientific no. 25300054) or TrypLE (Thermo Fisher Scientific no. 12605028) after transfection and centrifuged at 3000 g for 5 min. Supernatant was removed and the cell pellet was resuspended with 200 μL phosphate buffered saline (PBS) without calcium and magnesium (Thermo Fisher Scientific no. 10010023). Cells were transferred into 12×75 mm flow tubes (Global Scientific no. 110410). Cells were analyzed by MA900 flow cytometry (SONY). 405 nm laser (FL6 filter) was used for testing the BFP channel. 488 nm (FL1 filter) was used for testing the EYFP and GFP channel. Automated alignment using Automatic Setup Beads kit (SONY no. LE-B3001) is performed before running samples. In FIGS. 3A, 3B, and 17, experiments were performed under 2% FSC, 17% BSC, 24% FL1. […] Flow cytometry data was processed and analyzed by FlowJo 10. […] The mean intensity of the reporter fluorescent protein (BFP and EYFP) in viable and single cell populations were calculated by FlowJo 10 as the mean of FL6-A and FL1-A. When calculating the fold change of relative fluorescence units (RFU), the relative fluorescence units of EYFP was calculated by dividing the mean of fluorescence intensity of EYFP with the mean of BFP fluorescence intensity for normalization as the following formula: […]

CC[C@H](C(=O)N1CCCC[C@H]1C(=O)O[C@H](CCc1ccc(OC)c(OC)c1)c1ccccc1OCC(=O)NCCCCCCOc1cccc2c1C(=O)N(C1CCC(=O)NC1=O)C2=O)c1cc(OC)c(OC)c(OC)c1 (some centres unmarked) [dTAG-13]
prime editing efficiency (His6 Tag insertion) [1]: more than 20% | increase in GFP expression (prime editing repair of micro-deleted Cre) [2]: more than 25 fold

— patent publication US20250382631A1, “PROTAC-CID SYSTEMS FOR USE IN MULTIPLEX GENE REGULATION” (William Marsh Rice University, priority 2022, published 2025)
